# Measurements reported in US10293004B2, “Butyrate-producing bacterium and use thereof” (KABUSHIKI KAISHA YAKULT HONSHA, priority 2014, dated 2019).
# Test: Production of butyrate by each bacterial strain from L-sorbose and D-xylitol (ion-exclusion HPLC)
# Details: 24 hours, minus PYA blank
# Experimental: A frozen stock solution of each bacterial strain (a 10% (w/v) skim milk-2% sodium glutamate solution in which bacterial cells were suspended) (cell count: 2.0 to 5.5×10^10 cells/mL) was thawed, and the solution was inoculated at 1% to 4 mL of a PY liquid medium supplemented with 33 mM sodium acetate and 0.5 (w/v) % glucose (PYGA medium), followed by anaerobic culture at 37° C. for 24 hours. After the culture, the culture solution was inoculated at 1% to a fresh PYGA medium, followed by anaerobic culture at 37° C. for 24 hours. After the culture, the turbidity (OD660) of the culture solution was measured. Then, the culture solution was inoculated at 1% to a PY medium containing 0.5 (w/v) % L-sorbose or D-xylitol and 33 mM sodium acetate (the medium containing L-sorbose: PYSA, and the medium containing D-xylitol: PYXA), followed by anaerobic culture at 37° C. for 24 hours. Then, the turbidity (OD660) was measured.
# After the completion of the culture, the organic acid concentration in the culture solution was quantified by ion-exclusion HPLC. In this operation, a culture solution in a PY medium supplemented with sodium acetate but without L-sorbose or D-xylitol (PYA medium) was used as a blank.
# (HPLC Analysis Conditions) • Eluent: 15 mM perchloric acid-7% acetonitrile • pH adjuster: 15 mM perchloric acid-60 mM • tris(hydroxymethyl)aminomethane-7% acetonitrile • Separation column: Organic acid analysis column RSpak KC- • 811×2 (manufactured by Showa Denko K.K.) • Column temperature: 42° C. • Injected sample volume: 10 μL • Flow rate: 1.0 mL/min • Analysis time: 35 min • Detector: Waters 432 electric conductivity detector • Cell temperature: 45° C.
# The amount of butyrate produced was calculated according to (Expression 1). Amount of butyrate produced=(Amount of butyrate produced by culture for 24 hours in a PYSA or PYXA medium)−(Amount of butyrate produced by culture for 24 hours in a PYA medium) (Expression 1)
substance,measurement,setting,value
A. hadrus (Eubacterium hadrum) YIT 12355 (NITE BP-01832),Amount of butyrate produced,"D-Xylitol 0.5 (w/v) %, PYXA medium",31.9 mmol/L
same,Amount of butyrate produced,"L-Sorbose 0.5 (w/v) %, PYSA medium",15.4 mmol/L
